A short description of data set [1]: Selectivity index, ratio of CC50 for dog MDCK cells to IC50 for influenza A virus A/WSN/33(H1N1) infected in MDCK cells. It counts as toxicity, cell-based. As to conditions: read-out: Selectivity Index.
The next data set relates to MDCK. As to the kind of experiment: Cytotoxicity against dog MDCK cells assessed as reduction in cell viability at 100 uM incubated for 40 hrs by celltiter-glo assay. The class given is toxicity, cell-based, Canis lupus familiaris.
The test system of data set [2] is Influenza A virus. As to the kind of experiment: Antiviral activity against influenza A virus A/WSN/33(H1N1) infected in MDCK cells assessed as inhibition of viral-induced cytopathic effect pretreated with cells followed by viral infection and measured after 40 hrs by fluorescence based microplate reader analysis. The class given is functional, organism-based. For orientation: Damage to the host cells serves as the signal in cytopathic effect assays.

Data set [3] in a line: Cytotoxicity against dog MDCK cells assessed as reduction in cell viability incubated for 40 hrs by celltiter-glo assay. The class given is toxicity, cell-based, Canis lupus familiaris. (ATP-based viability assays read luminescence as a measure of living cells.)
Data set [4] relates to Influenza A virus. The data set is described as follows: Antiviral activity against Influenza A virus H1N1 infected in MDCK cells assessed as inhibition of viral growth at 100 uM relative to control. The class given is functional.

For orientation: IC50 means the midpoint of a concentration-inhibition curve. The CC50 is the concentration that lowers cell viability or growth by half. As usually defined, the inhibition is the change of the read-out against control, counted positive when it falls.

`CC(=O)OC[C@H]1O[C@@H](n2cc(CNC(=O)[C@]34CCC(C)(C)C[C@H]3C3=CC[C@@H]5[C@@]6(C)CC[C@H](OC(=O)NCCc7cn(Cc8cc(Cn9cc(CCNC(=O)O[C@H]%10CC[C@]%11(C)[C@H]%12CC=C%13[C@@H]%14CC(C)(C)CC[C@]%14(C(=O)NCc%14cn([C@@H]%15O[C@H](COC(C)=O)[C@@H](OC(C)=O)[C@H](OC(C)=O)[C@H]%15OC(C)=O)nn%14)CC[C@@]%13(C)[C@]%12(C)CC[C@H]%11C%10(C)C)nn9)cc(Cn9cc(CCNC(=O)O[C@H]%10CC[C@]%11(C)[C@H]%12CC=C%13[C@@H]%14CC(C)(C)CC[C@]%14(C(=O)NCc%14cn([C@@H]%15O[C@H](COC(C)=O)[C@@H](OC(C)=O)[C@H](OC(C)=O)[C@H]%15OC(C)=O)nn%14)CC[C@@]%13(C)[C@]%12(C)CC[C@H]%11C%10(C)C)nn9)c8)nn7)C(C)(C)[C@@H]6CC[C@@]5(C)[C@]3(C)CC4)nn2)[C@H](OC(C)=O)[C@@H](OC(C)=O)[C@@H]1OC(C)=O`: in data set [1], the selectivity ratio was above 8.55. The Activity result in the data set on MDCK is “Non-toxic”. For the same compound, in the data set with Influenza A virus [2], the IC50 was found to be 46.8 µM. In data set [3], the CC50 at 40 h was above 100 µM. The inhibition at 100 µM in the data set on Influenza A virus [4] is above 75%.

For the compound `CC(=O)OC[C@H]1O[C@@H](n2cc(CNC(=O)[C@]34CCC(C)(C)C[C@H]3C3=CC[C@@H]5[C@@]6(C)CC[C@H](OC(=O)NCc7cn(Cc8cc(Cn9cc(CNC(=O)O[C@H]%10CC[C@]%11(C)[C@H]%12CC=C%13[C@@H]%14CC(C)(C)CC[C@]%14(C(=O)NCc%14cn([C@@H]%15O[C@H](COC(C)=O)[C@@H](OC(C)=O)[C@H](OC(C)=O)[C@H]%15OC(C)=O)nn%14)CC[C@@]%13(C)[C@]%12(C)CC[C@H]%11C%10(C)C)nn9)cc(Cn9cc(CNC(=O)O[C@H]%10CC[C@]%11(C)[C@H]%12CC=C%13[C@@H]%14CC(C)(C)CC[C@]%14(C(=O)NCc%14cn([C@@H]%15O[C@H](COC(C)=O)[C@@H](OC(C)=O)[C@H](OC(C)=O)[C@H]%15OC(C)=O)nn%14)CC[C@@]%13(C)[C@]%12(C)CC[C@H]%11C%10(C)C)nn9)c8)nn7)C(C)(C)[C@@H]6CC[C@@]5(C)[C@]3(C)CC4)nn2)[C@H](OC(C)=O)[C@@H](OC(C)=O)[C@@H]1OC(C)=O`, in data set [1], the selectivity ratio was above 147. Also, in the data set with MDCK, the Activity result is given as “Non-toxic”. For the same compound, the IC50 with Influenza A virus [2] is 0.68 µM. The CC50 at 40 h in data set [3] was above 100 µM. Besides, in the data set on Influenza A virus [4], the inhibition at 100 µM is above 75%.

In the case of `CC(=O)OC[C@H]1O[C@@H](n2cc(CNC(=O)[C@]34CCC(C)(C)C[C@H]3C3=CC[C@@H]5[C@@]6(C)CC[C@H](OC(=O)NCCCc7cn(CC(CO)(Cn8cc(CCCNC(=O)O[C@H]9CC[C@]%10(C)[C@H]%11CC=C%12[C@@H]%13CC(C)(C)CC[C@]%13(C(=O)NCc%13cn([C@@H]%14O[C@H](COC(C)=O)[C@@H](OC(C)=O)[C@H](OC(C)=O)[C@H]%14OC(C)=O)nn%13)CC[C@@]%12(C)[C@]%11(C)CC[C@H]%10C9(C)C)nn8)Cn8cc(CCCNC(=O)O[C@H]9CC[C@]%10(C)[C@H]%11CC=C%12[C@@H]%13CC(C)(C)CC[C@]%13(C(=O)NCc%13cn([C@@H]%14O[C@H](COC(C)=O)[C@@H](OC(C)=O)[C@H](OC(C)=O)[C@H]%14OC(C)=O)nn%13)CC[C@@]%12(C)[C@]%11(C)CC[C@H]%10C9(C)C)nn8)nn7)C(C)(C)[C@@H]6CC[C@@]5(C)[C@]3(C)CC4)nn2)[C@H](OC(C)=O)[C@@H](OC(C)=O)[C@@H]1OC(C)=O`, the selectivity ratio in data set [1] was above 21.7. Moreover, in the data set on MDCK, the Activity entry is listed as “Non-toxic”. The IC50 in the data set on Influenza A virus [2] stood at 4.61 µM. The CC50 at 40 h in data set [3] is above 100 µM. The inhibition at 100 µM in the data set on Influenza A virus [4] was above 75%.

On to `CCOC(=O)C1=C[C@@H](OC(CC)CC)[C@H](NC(C)=O)[C@@H](N)C1.O=P(O)(O)O` [OSELTAMIVIR PHOSPHATE], for which the selectivity ratio in data set [1] is above 18.3. For the same compound, in the data set on MDCK, the Activity result is reported as “Non-toxic”. Also, the IC50 in the data set on Influenza A virus [2] is 5.47 µM. For the same compound, in data set [3], the CC50 at 40 h was above 100 µM.

As for `CC1(C)CC[C@]2(C(=O)NCc3cn([C@@H]4O[C@H](CO)[C@@H](O)[C@H](O)[C@H]4O)nn3)CC[C@]3(C)C(=CC[C@@H]4[C@@]5(C)CC[C@H](OC(=O)NCCc6cn(CC(CO)(Cn7cc(CCNC(=O)O[C@H]8CC[C@]9(C)[C@H]%10CC=C%11[C@@H]%12CC(C)(C)CC[C@]%12(C(=O)NCc%12cn([C@@H]%13O[C@H](CO)[C@@H](O)[C@H](O)[C@H]%13O)nn%12)CC[C@@]%11(C)[C@]%10(C)CC[C@H]9C8(C)C)nn7)Cn7cc(CCNC(=O)O[C@H]8CC[C@]9(C)[C@H]%10CC=C%11[C@@H]%12CC(C)(C)CC[C@]%12(C(=O)NCc%12cn([C@@H]%13O[C@H](CO)[C@@H](O)[C@H](O)[C@H]%13O)nn%12)CC[C@@]%11(C)[C@]%10(C)CC[C@H]9C8(C)C)nn7)nn6)C(C)(C)[C@@H]5CC[C@]43C)[C@@H]2C1`, the selectivity ratio in data set [1] was above 29.5. Further, in the data set with MDCK, the Activity result is given as “Non-toxic”. For the same compound, the IC50 in the data set with Influenza A virus [2] came out at 3.39 µM. Besides, the CC50 at 40 h in data set [3] is above 100 µM.

For `CC1(C)CC[C@]2(C(=O)NCc3cn([C@@H]4O[C@H](CO)[C@@H](O)[C@H](O)[C@H]4O)nn3)CC[C@]3(C)C(=CC[C@@H]4[C@@]5(C)CC[C@H](OC(=O)NCc6cn(CC(CO)(Cn7cc(CNC(=O)O[C@H]8CC[C@]9(C)[C@H]%10CC=C%11[C@@H]%12CC(C)(C)CC[C@]%12(C(=O)NCc%12cn([C@@H]%13O[C@H](CO)[C@@H](O)[C@H](O)[C@H]%13O)nn%12)CC[C@@]%11(C)[C@]%10(C)CC[C@H]9C8(C)C)nn7)Cn7cc(CNC(=O)O[C@H]8CC[C@]9(C)[C@H]%10CC=C%11[C@@H]%12CC(C)(C)CC[C@]%12(C(=O)NCc%12cn([C@@H]%13O[C@H](CO)[C@@H](O)[C@H](O)[C@H]%13O)nn%12)CC[C@@]%11(C)[C@]%10(C)CC[C@H]9C8(C)C)nn7)nn6)C(C)(C)[C@@H]5CC[C@]43C)[C@@H]2C1`, the selectivity ratio in data set [1] is above 14.5. The Activity result with MDCK is reported as “Non-toxic”. In addition, the IC50 in the data set with Influenza A virus [2] was determined as 6.91 µM. Besides, the CC50 at 40 h in data set [3] was above 100 µM. Moreover, the inhibition at 100 µM with Influenza A virus [4] is above 75%.

For `CC1(C)CC[C@]2(C(=O)NCc3cn([C@@H]4O[C@H](CO)[C@@H](O)[C@H](O)[C@H]4O)nn3)CC[C@]3(C)C(=CC[C@@H]4[C@@]5(C)CC[C@H](OC(=O)NCCCc6cn(Cc7cc(Cn8cc(CCCNC(=O)O[C@H]9CC[C@]%10(C)[C@H]%11CC=C%12[C@@H]%13CC(C)(C)CC[C@]%13(C(=O)NCc%13cn([C@@H]%14O[C@H](CO)[C@@H](O)[C@H](O)[C@H]%14O)nn%13)CC[C@@]%12(C)[C@]%11(C)CC[C@H]%10C9(C)C)nn8)cc(Cn8cc(CCCNC(=O)O[C@H]9CC[C@]%10(C)[C@H]%11CC=C%12[C@@H]%13CC(C)(C)CC[C@]%13(C(=O)NCc%13cn([C@@H]%14O[C@H](CO)[C@@H](O)[C@H](O)[C@H]%14O)nn%13)CC[C@@]%12(C)[C@]%11(C)CC[C@H]%10C9(C)C)nn8)c7)nn6)C(C)(C)[C@@H]5CC[C@]43C)[C@@H]2C1`, in data set [1], the selectivity ratio was above 2.28. Moreover, the Activity entry in the data set with MDCK was “Non-toxic”. Besides, the IC50 in the data set with Influenza A virus [2] was found to be 43.9 µM. The CC50 at 40 h in data set [3] was above 100 µM. In addition, the inhibition at 100 µM in the data set on Influenza A virus [4] was above 75%.

As to `CC1(C)CC[C@]2(C(=O)NCc3cn([C@@H]4O[C@H](CO)[C@@H](O)[C@H](O)[C@H]4O)nn3)CC[C@]3(C)C(=CC[C@@H]4[C@@]5(C)CC[C@H](OC(=O)NCCCc6cn(CC(CO)(Cn7cc(CCCNC(=O)O[C@H]8CC[C@]9(C)[C@H]%10CC=C%11[C@@H]%12CC(C)(C)CC[C@]%12(C(=O)NCc%12cn([C@@H]%13O[C@H](CO)[C@@H](O)[C@H](O)[C@H]%13O)nn%12)CC[C@@]%11(C)[C@]%10(C)CC[C@H]9C8(C)C)nn7)Cn7cc(CCCNC(=O)O[C@H]8CC[C@]9(C)[C@H]%10CC=C%11[C@@H]%12CC(C)(C)CC[C@]%12(C(=O)NCc%12cn([C@@H]%13O[C@H](CO)[C@@H](O)[C@H](O)[C@H]%13O)nn%12)CC[C@@]%11(C)[C@]%10(C)CC[C@H]9C8(C)C)nn7)nn6)C(C)(C)[C@@H]5CC[C@]43C)[C@@H]2C1`, in data set [1], the selectivity ratio was above 25.5. Further, in the data set with MDCK, the Activity result is listed as “Non-toxic”. Further, in the data set on Influenza A virus [2], the IC50 turned out to be 3.93 µM. For the same compound, the cytotoxic concentration (CC50) at 40 h in data set [3] was above 100 µM. The inhibition at 100 µM in the data set on Influenza A virus [4] was above 75%.

Take `CC(=O)OC[C@H]1O[C@@H](n2cc(CNC(=O)[C@]34CCC(C)(C)C[C@H]3C3=CC[C@@H]5[C@@]6(C)CC[C@H](OC(=O)NCc7cn(CC(CO)(Cn8cc(CNC(=O)O[C@H]9CC[C@]%10(C)[C@H]%11CC=C%12[C@@H]%13CC(C)(C)CC[C@]%13(C(=O)NCc%13cn([C@@H]%14O[C@H](COC(C)=O)[C@@H](OC(C)=O)[C@H](OC(C)=O)[C@H]%14OC(C)=O)nn%13)CC[C@@]%12(C)[C@]%11(C)CC[C@H]%10C9(C)C)nn8)Cn8cc(CNC(=O)O[C@H]9CC[C@]%10(C)[C@H]%11CC=C%12[C@@H]%13CC(C)(C)CC[C@]%13(C(=O)NCc%13cn([C@@H]%14O[C@H](COC(C)=O)[C@@H](OC(C)=O)[C@H](OC(C)=O)[C@H]%14OC(C)=O)nn%13)CC[C@@]%12(C)[C@]%11(C)CC[C@H]%10C9(C)C)nn8)nn7)C(C)(C)[C@@H]6CC[C@@]5(C)[C@]3(C)CC4)nn2)[C@H](OC(C)=O)[C@@H](OC(C)=O)[C@@H]1OC(C)=O`: the selectivity ratio in data set [1] is above 1.42. In addition, the Activity result in the data set with MDCK is on record as “Non-toxic”. Besides, the IC50 in the data set with Influenza A virus [2] was 70.4 µM. Further, in data set [3], the CC50 at 40 h is above 100 µM. Also, the inhibition at 100 µM in the data set with Influenza A virus [4] was above 75%.

(Values after ChEMBL document CHEMBL6078640, “Trivalent oleanolic acid-glucose conjugates: Synthesis and efficacy against Influenza A virus” (Eur J Med Chem, 2024).)
